# Patent US20050032882A1, “Botanical extract compositions and methods of use” (priority 2002, published 2005)
# pIC50: −log10 of the molar value.
# What was measured:
# [1] = target: T1, COX-2 (Ovis aries, UniProt P79208); experiment: ovine COX-2 Inhibitor Screening Assay (Cayman, prostaglandin immunoassay); assay type: biochemical; settings: ovine COX-2, arachidonic acid substrate; read-out: IC50 COX-2 inhibition
# T1 construct: purchased Cayman Chemical 760101
# T1 sequence (P79208 17-603): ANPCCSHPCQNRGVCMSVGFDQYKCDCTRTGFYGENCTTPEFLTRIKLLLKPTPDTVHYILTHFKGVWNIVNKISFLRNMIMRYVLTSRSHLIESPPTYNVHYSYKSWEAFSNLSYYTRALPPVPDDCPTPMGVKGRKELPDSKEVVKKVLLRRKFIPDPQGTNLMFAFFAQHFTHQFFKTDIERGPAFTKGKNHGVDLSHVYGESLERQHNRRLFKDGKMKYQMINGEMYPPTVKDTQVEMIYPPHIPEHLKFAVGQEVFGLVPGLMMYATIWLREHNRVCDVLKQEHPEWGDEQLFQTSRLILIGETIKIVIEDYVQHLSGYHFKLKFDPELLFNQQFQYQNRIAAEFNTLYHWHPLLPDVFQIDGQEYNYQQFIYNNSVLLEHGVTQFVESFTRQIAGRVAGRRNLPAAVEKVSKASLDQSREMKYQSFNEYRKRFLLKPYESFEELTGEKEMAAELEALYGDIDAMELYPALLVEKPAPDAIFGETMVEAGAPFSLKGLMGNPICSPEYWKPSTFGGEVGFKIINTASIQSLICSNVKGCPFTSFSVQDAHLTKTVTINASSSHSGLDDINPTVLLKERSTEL
# Protocol: This immunoassay uses an antibody to that binds all major prostaglandins to measure quantitatively the amount of PGF2α produced in the COX reaction using arachidonic acid as a substrate. The final volume of the reactions as described below is typically 1.15 ml. In brief, COX-1 or COX-2 (e.g., 20 μl of a solution of from 1 to 100 units/ml COX, where a unit is defined as the amount of enzyme that consumes one nanomole of oxygen per minute at 37° C. in 0.1 M Tris-HCl buffer, pH 8.0 containing 100 μM arachidonate, 5 mM EDTA, 2 mM phenol and 1 μM hematin) is first mixed with a buffer (e.g., 0.1 M Tris, pH 8.0, 5 mM EDTA, 2 mM phenol) and heme (e.g., 10 μl of 10 mM heme) in a microfuge tube. The heme is a cofactor for COX that provides maximal activity in the assay. […] The prostaglandin produced in the reactions is typically quantified using an enzyme immunoassay.
# The enzyme immunoassay to detect prostaglandin can conveniently be performed in a 96 well plate using an antibody to detect prostaglandin. As controls, prostaglandin standards and COX 100% activity samples (no inhibitor) can be measured. […] When ready to develop the plate, the reactions are first washed and then incubated with 200 μl of Ellman's reagent for 60 minutes or so. The plate can be read at 405 to 420 nm on a plate reader. […]
# [2] = test system: LNCaP cells; experiment: LNCaP cell cycle by DNA content flow cytometry; assay type: cell-based; settings: LNCaP cells exposed 24-48 hours, DAPI DNA content flow cytometry
# Protocol: The cells were washed with phosphate buffered saline (PBS) and fixed in ice-cold 70% ethanol. […] ([…]. Juan, […]. Chen, F. Traganos and Z. Darzynkiewicz, “Apoptosis and Cell Cycle Effects Induced by Extracts of the Chinese Herbal Preparation of PC SPES”, International J. of Oncology (1997), 11: 437-448). The cellular DNA content was measured with an ELITE ESP flow cytometer (Coulter Inc., Fl.) using UV laser illumination. The multicycle program was used to deconvolute the DNA frequency histograms to estimate the frequency of cells in different phases of the cell cycle. […] Similar measurements were conducted for isoliquiritigenin.
# [3] = test system: DU-145 (androgen-independent) prostate cancer cells; experiment: MTT cell viability assay, DU-145 prostate cancer cells; assay type: cell-based; settings: concentration giving 50% inhibition of cancer cell growth, 72 hours, linear interpolation
# Excerpt: (§1) Cancer cell lines: LNCaP, DU-145, and MCF-7 cells were purchased from the American Type Culture Collection. […] Cells were maintained in RPMI 1640 culture media supplemented with 10% heat-inactivated FBS, 5 millimolar glutamine, 50 units/milliliter of penicillin G, and 50 […] of streptomycin. The cells were routinely seeded at 1×10^5 cells/milliliter in T-75 flasks, allowed to attach overnight, then treated with the herbal extract. At different times, cells were harvested by trypsinization. […] The assay reagents were purchased from Boehringer Mannheim (Roche Diagnosis Corp, Indianapolis, Ind.). […] The protocol for the cell viability assay was provided by the manufacturer and modified in our laboratory as described below. […] After 24 hours, 20 microliter aliquots of the compounds at various concentrations were added to the attached cells. […] The plates were incubated at 37° C. in a CO2 incubator for 72 hours. At the end of day 3 (after 72 hours), the culture medium was carefully removed without disturbing the cells and replaced by 100 microliters of fresh cell medium.
# [4] = test system: PTX 10 (taxol resistant ovarian cancer cell line); experiment: MTT cell viability assay, PTX 10 taxol-resistant ovarian cancer cells; assay type: cell-based; settings: protocol as Example 1
# Excerpt: Cancer cell lines: LNCaP, DU-145, and MCF-7 cells were purchased from the American Type Culture Collection. PTX 10, a taxol-resistant ovarian cancer cell line, was obtained from the Brander Cancer Research Laboratory, New York Medical College. Cells were maintained in RPMI 1640 culture media supplemented with 10% heat-inactivated FBS, 5 millimolar glutamine, 50 units/milliliter of penicillin G, and 50 […] of streptomycin. The cells were routinely seeded at 1×10^5 cells/milliliter in T-75 flasks, allowed to attach overnight, then treated with the herbal extract. At different times, cells were harvested by trypsinization.
# The assay reagents were purchased from Boehringer Mannheim (Roche Diagnosis Corp, Indianapolis, Ind.). […] The protocol for the cell viability assay was provided by the manufacturer and modified in our laboratory as described below.
# After 24 hours, 20 microliter aliquots of the compounds at various concentrations were added to the attached cells. […] The plates were incubated at 37° C. in a CO2 incubator for 72 hours. At the end of day 3 (after 72 hours), the culture medium was carefully removed without disturbing the cells and replaced by 100 microliters of fresh cell medium.
# [5] = test system: LNCaP (androgen-dependent) prostate cancer cells; experiment: MTT cell viability assay, LNCaP prostate cancer cells; assay type: cell-based; settings: concentration giving 50% inhibition of cancer cell growth, 72 hours, linear interpolation
# Excerpt: as §1
# [6] = test system: MCF-7 breast cancer cells; experiment: MTT cell viability assay, MCF-7 breast cancer cells; assay type: cell-based; settings: concentration giving 50% inhibition of cancer cell growth, 72 hours, linear interpolation
# Excerpt: Cancer cell lines: LNCaP, DU-145, and MCF-7 cells were purchased from the American Type Culture Collection. […] Cells were maintained in RPMI 1640 culture media supplemented with 10% heat-inactivated FBS, 5 millimolar glutamine, 50 units/milliliter of penicillin G, and 50 […] of streptomycin. The cells were routinely seeded at 1×10^5 cells/milliliter in T-75 flasks, allowed to attach overnight, then treated with the herbal extract. At different times, cells were harvested by trypsinization. […] The assay reagents were purchased from Boehringer Mannheim (Roche Diagnosis Corp, Indianapolis, Ind.). […] The protocol for the cell viability assay was provided by the manufacturer and modified in our laboratory as described below. CSO-0001-P […] After 24 hours, 20 microliter aliquots of the compounds at various concentrations were added to the attached cells. […] The plates were incubated at 37° C. in a CO2 incubator for 72 hours. […] The plate was allowed to stand overnight in the CO2 incubator and read by an ELISA Reader (EL800, Bio-Tek Instruments, Inc.) at a wavelength of 570 nm. The percent cell viability was calculated according to the equation below: [formula] where V is the percent cell viability, Acontrol is the absorption of the control cells, and Atreated is the absorption of the treated cells. […]
# [7] = test system: DU-145 cells; experiment: DU-145 cell cycle by DNA content flow cytometry; assay type: cell-based; settings: protocol of Example 3
# Protocol: The cells were washed with phosphate buffered saline (PBS) and fixed in ice-cold 70% ethanol. […] ([…]. Juan, […]. Chen, F. Traganos and Z. Darzynkiewicz, “Apoptosis and Cell Cycle Effects Induced by Extracts of the Chinese Herbal Preparation of PC SPES”, International J. of Oncology (1997), 11: 437-448). The cellular DNA content was measured with an ELITE ESP flow cytometer (Coulter Inc., Fl.) using UV laser illumination. The multicycle program was used to deconvolute the DNA frequency histograms to estimate the frequency of cells in different phases of the cell cycle.
Structure (SMILES),pIC50 [1],"effect on LNCaP cell cycle phases (G1, S, G2M) [2]","ED50 from MTT assay, DU145 [3] [µg/mL]",ED50 PTX 10 (taxol resistant ovarian cancer cell) [4] [µg/mL],"ED50 from MTT assay, LNCaP [5] [µg/mL]","ED50 from MTT assay, MCF7 [6] [µg/mL]",effect on DU-145 cell cycle phases [7]
"O=C(/C=C/c1ccc(O)cc1)c1ccc(O)cc1O [Isoliquiritigenin, 2′,4,4′-trihydroxychalcone]",4.98,induced a G2M phase arrest,7.60,3.32,3.51,3.25,
"COc1c(O)cc(O)c2c(=O)cc(-c3ccccc3)oc12 [Wogonin, 5,7-dihydroxy-8-methoxy-flavone]",,induced a G1 phase arrest,,,,,prolonged the G2M phase
